Counter-ions that a name gives are not always drawn.
Test: Solubility of bevirimat and bevirimat dimeglumine in single vehicles
Conditions: in 100% water, 100% saline, 100% dextrose, 100% PEG 400, and 25% Poloxamer 188

With `C=C(C)[C@@H]1CC[C@]2(C(=O)O)CC[C@]3(C)[C@H](CC[C@@H]4[C@@]5(C)CC[C@H](OC(=O)CC(C)(C)C(=O)O)C(C)(C)[C@@H]5CC[C@]43C)[C@@H]12` [Bevirimat dimeglumine, di-N-methylglucamine salt of 3-O-(3′,3′-dimethylsuccinyl)betulinic acid] as the molecule, how does the “solubility (in words)” value read?
The value was “limited solubility”.

From patent publication US20100216751A1 (priority 2007, published 2010)
